Test results taken from patent US7915270B2, “Oxazole ketones as modulators of fatty acid amide hydrolase” (The Scripps Research Institute, priority 2006, dated 2011).
Like-named read-outs stand apart in the source and are kept apart here.

Columns and labels:
[1] = Solubility determination in water; type: physicochemical; conditions: thermodynamic from solid; in water at 5, 1 and 0.1 mg/mL; pH of resulting solutions 7-8.5
Procedure: Physical Chemical Properties
Solubility determinations were made by mixing the test compound in water at 5 mg/mL, 1 mg/mL, and 0.1 mg/mL concentrations. The pH of the resulting solutions was 7-8.5.

Rat FAAH = target: T1, Rat FAAH (Rattus norvegicus, UniProt P97612); assay: Assay Method 2: FAAH assay, 3H-anandamide hydrolysis in cell homogenate (SK-N-MC cells transfected with rat FAAH); type: biochemical; conditions: 3H-AEA 80 nM, rt 1 h, pH 9
T1 construct: expressed in transfected cells
T1 sequence (P97612 1-579): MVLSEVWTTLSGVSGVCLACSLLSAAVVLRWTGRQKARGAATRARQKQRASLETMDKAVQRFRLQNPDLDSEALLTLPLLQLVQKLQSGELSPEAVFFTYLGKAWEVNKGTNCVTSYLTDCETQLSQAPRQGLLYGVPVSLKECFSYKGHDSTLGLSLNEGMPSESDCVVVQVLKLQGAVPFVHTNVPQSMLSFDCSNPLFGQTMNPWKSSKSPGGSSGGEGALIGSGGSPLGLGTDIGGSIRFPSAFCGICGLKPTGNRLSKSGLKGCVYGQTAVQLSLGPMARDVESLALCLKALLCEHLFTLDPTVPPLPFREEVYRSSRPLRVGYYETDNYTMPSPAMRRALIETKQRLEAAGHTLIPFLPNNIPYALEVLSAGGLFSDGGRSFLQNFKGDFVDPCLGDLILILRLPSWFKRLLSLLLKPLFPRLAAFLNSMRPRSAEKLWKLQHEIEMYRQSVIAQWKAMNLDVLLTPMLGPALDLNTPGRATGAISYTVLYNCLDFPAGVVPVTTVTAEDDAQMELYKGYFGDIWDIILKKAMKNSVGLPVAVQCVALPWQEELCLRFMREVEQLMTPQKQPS

FAAH = target: T2, FAAH (Rattus norvegicus, UniProt P97612); assay: Assay Method 1A: FAAH enzyme assay, 14C-oleamide hydrolysis, solubilized liver plasma membrane extract;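 further: ki obtained by Dixon analysis, taking the x-intercept of inhibitor concentration versus reciprocal rate plots at fixed substrate level and correcting for substrate concentration relative to Km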
T2 sequence (P97612 1-579): T1 sequence (P97612 1-579)
Procedure: Linear least squares fits were used for all reaction progress curves and R^2 values were consistently >0.97. […] Ki values were determined by the Dixon Method (x-intercepts of weighted linear fits of [I] versus 1/rate plots at constant substrate concentration, which were converted to Ki values using the formula Ki=−xint/[1+[S]/Km]).

[2] = Pharmacokinetic testing, intravenous bolus in rats; type: in vivo; conditions: rat, plasma, 2 mg/kg, male Sprague Dawley rats, 1 mg/mL in 2 mL/kg
Procedure: For each test compound, two male Sprague Dawley Rats (Charles River Laboratories; approx. 300 g body weight) were used. Animals were individually housed, provided food and water ad libitum, and were maintained on a 12 h light and dark cycle. Animals received from the vendor were surgically cannulated by the vendor with right jugular vein and left carotid artery catheters. Animals were acclimatized for at least 5 days after receipt from the vendor prior to investigations.
Animals received a bolus intravenous dose of the test compound at a dose of 1 mg/mL in a volume of 2 mL/kg via the right jugular vein catheter. The intravenous dosing solution was prepared in 55% pharmasolve, 20% cremophor, and […] physiological saline, or 100% saline adjusted to pH 8.0.
Following intravenous administration, blood was collected (sampled 0.35 mL per time point from the left carotid artery catheter) at 0.083, 0.25, 0.5, 1, 2, 4, and 6 h post-dose. Blood was collected into tubes containing EDTA and stored at 4° C. for not more than 2 h. The samples were centrifuged at 10,000 rpm in a micro-centrifuge for 5 min to obtain a plasma fraction. The plasma was stored at between −20 and −80° C. until processed for analysis. These samples were analyzed by LC-MS/MS to determine the plasma level of the compound.
Plasma level vs. time plots were created and WinNonlin (Pharsight Corp.) was used to analyze the data. A non-compartmental pharmacokinetic model was used to determine the pharmacokinetic parameters, including clearance, volume of distribution (Vd), and half-life (t1/2).

solubility [1] [µg/mL]	IC50 (Rat FAAH) [nM]	Ki (FAAH) [nM]	Vd [2] [L/kg]	clearance [2] [mL/min/kg]	half-life [2] [min]	Ki (FAAH; read-out: Assay 1A Ki, liver plasma membrane extract containing FAAH, 14C-oleamide, pH 9.0, 20-23 °C, Dixon method) [nM]	SMILES
> 5000	2	7	1.4	112	9		O=C(O)c1ccc(-c2cnc(C(=O)CCCCCCc3ccccc3)o2)nc1 [Example 38, 6-(2-(7-Phenylheptanoyl)oxazol-5-yl)nicotinic acid]
> 5000	11		0.86	7.67	74.4	20	O=C(O)c1cccc(-c2cnc(C(=O)CCCCCCc3ccccc3)o2)n1 [Example 37, 6-(2-(7-Phenylheptanoyl)oxazol-5-yl)picolinic acid]
